Assay results published in the kinase profiling compilation of Christmann-Franck et al. (2016).

Legend:
Test in all cases: KINOMEscan competition binding
Conditions in all cases: compound 10.0 µM; call rule not given here
CSNK2A1 (human) = CSNK2A1 (human) (UniProt P68400)
CSNK2A2 (human) = CSNK2A2 (human) (UniProt P19784)
PRKAA2 (human) = PRKAA2 (human) (UniProt P54646)
FGR (human) = FGR (human) (UniProt P09769)
BMP2K (human) = BMP2K (human) (UniProt Q9NSY1)
STK24 (human) = STK24 (human) (UniProt Q9Y6E0)
CSNK1D (human) = CSNK1D (human) (UniProt P48730)
SRPK1 (human) = SRPK1 (human) (UniProt Q96SB4)
MST4 (human) = MST4 (human) (UniProt Q9P289)
EPHA1 (human) = EPHA1 (human) (UniProt P21709)
KIT (human) = KIT (human) (UniProt P10721)
TESK1 (human) = TESK1 (human) (UniProt Q15569)
PDGFRB (human) = PDGFRB (human) (UniProt P09619)
EPHA3 (human) = EPHA3 (human) (UniProt P29320)
Sequence of EPHA3 (human) (P29320 whole entry, looked up): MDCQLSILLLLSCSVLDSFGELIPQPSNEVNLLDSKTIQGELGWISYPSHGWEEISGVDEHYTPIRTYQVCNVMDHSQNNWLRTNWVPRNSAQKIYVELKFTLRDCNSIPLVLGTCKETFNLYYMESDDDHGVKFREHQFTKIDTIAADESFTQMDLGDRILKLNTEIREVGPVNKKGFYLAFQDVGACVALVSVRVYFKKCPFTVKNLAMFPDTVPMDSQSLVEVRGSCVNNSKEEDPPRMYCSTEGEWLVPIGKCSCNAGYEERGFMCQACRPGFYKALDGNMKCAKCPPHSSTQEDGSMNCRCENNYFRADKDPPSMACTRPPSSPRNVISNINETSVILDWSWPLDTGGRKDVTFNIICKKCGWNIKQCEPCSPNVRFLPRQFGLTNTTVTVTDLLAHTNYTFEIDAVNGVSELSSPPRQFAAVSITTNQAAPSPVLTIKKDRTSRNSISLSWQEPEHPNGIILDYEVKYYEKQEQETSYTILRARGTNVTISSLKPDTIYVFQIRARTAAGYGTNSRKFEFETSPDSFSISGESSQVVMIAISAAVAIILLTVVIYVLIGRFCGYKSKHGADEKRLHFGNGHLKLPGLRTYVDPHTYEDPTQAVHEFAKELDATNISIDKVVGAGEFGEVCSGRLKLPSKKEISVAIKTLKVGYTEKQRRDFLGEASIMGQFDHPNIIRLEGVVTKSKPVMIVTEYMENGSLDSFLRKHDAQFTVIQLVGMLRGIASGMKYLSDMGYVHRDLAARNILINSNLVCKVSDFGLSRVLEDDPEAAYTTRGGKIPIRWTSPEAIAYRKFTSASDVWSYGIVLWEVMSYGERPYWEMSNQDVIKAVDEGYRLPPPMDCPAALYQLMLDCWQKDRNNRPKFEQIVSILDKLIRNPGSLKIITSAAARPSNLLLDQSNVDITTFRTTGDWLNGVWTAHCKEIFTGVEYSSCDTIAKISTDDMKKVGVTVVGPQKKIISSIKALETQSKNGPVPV

STK4 (human) = STK4 (human) (UniProt Q13043)
Sequence of STK4 (human) (Q13043 whole entry, looked up): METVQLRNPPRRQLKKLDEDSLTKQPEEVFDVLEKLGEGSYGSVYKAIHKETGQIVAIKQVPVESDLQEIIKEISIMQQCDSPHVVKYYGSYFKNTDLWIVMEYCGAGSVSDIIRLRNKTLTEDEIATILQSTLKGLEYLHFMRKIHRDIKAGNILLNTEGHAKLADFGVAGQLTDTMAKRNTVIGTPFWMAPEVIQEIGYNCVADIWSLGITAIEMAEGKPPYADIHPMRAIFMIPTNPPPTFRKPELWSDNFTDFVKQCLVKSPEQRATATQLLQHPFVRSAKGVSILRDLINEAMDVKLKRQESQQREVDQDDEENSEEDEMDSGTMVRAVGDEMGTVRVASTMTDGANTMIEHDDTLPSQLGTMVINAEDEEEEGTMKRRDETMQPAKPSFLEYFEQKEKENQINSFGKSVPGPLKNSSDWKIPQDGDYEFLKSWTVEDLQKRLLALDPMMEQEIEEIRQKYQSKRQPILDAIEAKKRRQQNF

STK17A (human) = STK17A (human) (UniProt Q9UEE5)
MERTK (human) = MERTK (human) (UniProt Q12866)
[1] = test system: EIF2AK4 KD2 (human), Q9P2K8 [S808G]
DAPK3 (human) = DAPK3 (human) (UniProt O43293)
YES1 (human) = YES1 (human) (UniProt P07947)
MAPK12 (human) = MAPK12 (human) (UniProt P53778)
ITK (human) = ITK (human) (UniProt Q08881)
TLK1 (human) = TLK1 (human) (UniProt Q9UKI8)
Sequence of TLK1 (human) (Q9UKI8 whole entry, looked up): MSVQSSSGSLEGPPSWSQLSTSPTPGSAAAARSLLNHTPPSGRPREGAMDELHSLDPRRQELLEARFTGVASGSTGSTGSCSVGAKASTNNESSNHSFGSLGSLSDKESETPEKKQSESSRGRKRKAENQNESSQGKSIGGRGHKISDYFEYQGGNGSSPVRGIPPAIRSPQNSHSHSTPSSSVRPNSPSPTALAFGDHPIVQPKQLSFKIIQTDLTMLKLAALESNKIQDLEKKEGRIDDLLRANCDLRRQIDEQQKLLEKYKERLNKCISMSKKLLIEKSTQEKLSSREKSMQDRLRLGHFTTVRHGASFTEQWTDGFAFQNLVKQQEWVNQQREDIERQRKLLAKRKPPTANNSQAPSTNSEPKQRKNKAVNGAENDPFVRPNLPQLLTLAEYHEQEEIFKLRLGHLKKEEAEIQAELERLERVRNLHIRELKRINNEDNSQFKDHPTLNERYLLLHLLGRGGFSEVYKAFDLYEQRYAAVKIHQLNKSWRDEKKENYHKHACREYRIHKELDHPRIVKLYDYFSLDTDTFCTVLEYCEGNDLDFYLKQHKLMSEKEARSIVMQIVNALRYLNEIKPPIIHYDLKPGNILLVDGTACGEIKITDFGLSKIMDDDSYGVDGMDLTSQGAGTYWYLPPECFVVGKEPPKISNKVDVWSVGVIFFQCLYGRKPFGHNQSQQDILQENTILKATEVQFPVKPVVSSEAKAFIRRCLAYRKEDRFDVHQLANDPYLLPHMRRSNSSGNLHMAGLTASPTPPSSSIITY

EPHB1 (human) = EPHB1 (human) (UniProt P54762)
MAP3K11 (human) = MAP3K11 (human) (UniProt Q16584)
MAP4K3 (human) = MAP4K3 (human) (UniProt Q8IVH8)
TNK2 (human) = TNK2 (human) (UniProt Q07912)
STK11 (human) = STK11 (human) (UniProt Q15831)
NLK (human) = NLK (human) (UniProt Q9UBE8)
LYN (human) = LYN (human) (UniProt P07948)
Sequence of LYN (human) (P07948 whole entry, looked up): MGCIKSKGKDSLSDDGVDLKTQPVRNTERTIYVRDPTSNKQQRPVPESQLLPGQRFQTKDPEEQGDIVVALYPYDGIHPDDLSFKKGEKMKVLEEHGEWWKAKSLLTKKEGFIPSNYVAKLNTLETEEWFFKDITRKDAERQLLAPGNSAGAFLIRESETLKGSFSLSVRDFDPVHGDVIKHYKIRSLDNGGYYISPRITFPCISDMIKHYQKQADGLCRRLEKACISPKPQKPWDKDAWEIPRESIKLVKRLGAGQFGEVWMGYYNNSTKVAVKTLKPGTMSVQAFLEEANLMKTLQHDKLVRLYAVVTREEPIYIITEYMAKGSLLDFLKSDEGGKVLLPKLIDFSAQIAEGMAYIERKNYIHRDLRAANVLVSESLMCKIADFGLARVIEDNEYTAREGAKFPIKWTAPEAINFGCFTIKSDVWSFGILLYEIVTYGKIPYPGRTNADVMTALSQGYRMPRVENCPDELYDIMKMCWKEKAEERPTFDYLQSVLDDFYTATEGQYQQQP

BTK (human) = BTK (human) (UniProt Q06187)
MAP4K4 (human) = MAP4K4 (human) (UniProt O95819)
MYLK2 (human) = MYLK2 (human) (UniProt Q9H1R3)
ACVRL1 (human) = ACVRL1 (human) (UniProt P37023)
STK3 (human) = STK3 (human) (UniProt Q13188)
KDR (human) = KDR (human) (UniProt P35968)
MAP4K1 (human) = MAP4K1 (human) (UniProt Q92918)
TNK1 (human) = TNK1 (human) (UniProt Q13470)
ULK3 (human) = ULK3 (human) (UniProt Q6PHR2)
[2] = target: TYK2 JH1 catalytic (human) (UniProt P29597)

Sequence of BMP2K (human) (Q9NSY1 whole entry, looked up): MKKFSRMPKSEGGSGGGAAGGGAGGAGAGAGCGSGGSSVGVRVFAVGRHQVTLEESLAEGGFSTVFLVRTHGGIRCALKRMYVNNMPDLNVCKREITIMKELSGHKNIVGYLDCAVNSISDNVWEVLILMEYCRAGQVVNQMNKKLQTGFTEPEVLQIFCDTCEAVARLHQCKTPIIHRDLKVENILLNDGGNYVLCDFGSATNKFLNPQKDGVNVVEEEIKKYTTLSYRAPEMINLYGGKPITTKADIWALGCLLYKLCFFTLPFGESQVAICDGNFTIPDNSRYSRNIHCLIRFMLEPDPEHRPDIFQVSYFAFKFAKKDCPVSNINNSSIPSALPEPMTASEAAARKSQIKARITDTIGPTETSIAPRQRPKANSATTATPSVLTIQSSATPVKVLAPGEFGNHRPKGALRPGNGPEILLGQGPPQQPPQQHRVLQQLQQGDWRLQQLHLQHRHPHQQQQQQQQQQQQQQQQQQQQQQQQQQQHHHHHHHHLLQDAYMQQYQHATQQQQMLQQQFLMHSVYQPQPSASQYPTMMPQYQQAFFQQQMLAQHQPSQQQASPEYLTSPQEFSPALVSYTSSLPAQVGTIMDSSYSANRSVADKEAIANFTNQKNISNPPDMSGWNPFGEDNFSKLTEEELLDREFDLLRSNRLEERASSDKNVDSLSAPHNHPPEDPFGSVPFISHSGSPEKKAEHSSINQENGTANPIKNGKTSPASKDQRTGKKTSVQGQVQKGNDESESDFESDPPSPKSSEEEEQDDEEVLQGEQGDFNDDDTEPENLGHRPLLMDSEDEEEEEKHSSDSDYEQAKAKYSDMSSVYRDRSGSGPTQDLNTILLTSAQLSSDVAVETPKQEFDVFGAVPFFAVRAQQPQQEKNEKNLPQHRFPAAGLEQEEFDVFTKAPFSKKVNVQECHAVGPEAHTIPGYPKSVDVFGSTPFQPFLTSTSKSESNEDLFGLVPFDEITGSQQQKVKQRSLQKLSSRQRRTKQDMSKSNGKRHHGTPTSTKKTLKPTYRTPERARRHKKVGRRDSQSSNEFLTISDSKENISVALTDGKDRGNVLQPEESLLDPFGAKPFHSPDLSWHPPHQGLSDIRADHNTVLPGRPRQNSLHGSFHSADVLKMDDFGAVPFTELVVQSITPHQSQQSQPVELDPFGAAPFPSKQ
Sequence of PRKAA2 (human) (P54646 whole entry, looked up): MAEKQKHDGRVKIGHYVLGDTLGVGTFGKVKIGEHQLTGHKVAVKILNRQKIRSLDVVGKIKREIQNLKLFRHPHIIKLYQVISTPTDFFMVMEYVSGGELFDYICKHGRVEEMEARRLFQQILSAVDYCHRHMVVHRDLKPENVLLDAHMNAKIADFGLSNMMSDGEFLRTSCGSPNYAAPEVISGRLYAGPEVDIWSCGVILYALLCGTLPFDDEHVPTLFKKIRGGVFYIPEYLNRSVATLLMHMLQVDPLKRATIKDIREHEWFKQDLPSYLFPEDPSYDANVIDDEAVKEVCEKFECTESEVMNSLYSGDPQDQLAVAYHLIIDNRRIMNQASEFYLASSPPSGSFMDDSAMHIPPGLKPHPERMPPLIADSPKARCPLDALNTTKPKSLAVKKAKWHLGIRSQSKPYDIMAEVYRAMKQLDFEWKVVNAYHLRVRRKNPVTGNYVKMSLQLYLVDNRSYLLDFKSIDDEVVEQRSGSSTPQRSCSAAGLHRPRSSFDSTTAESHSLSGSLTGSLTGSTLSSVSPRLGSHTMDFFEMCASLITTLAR
Sequence of CSNK2A1 (human) (P68400 whole entry, looked up): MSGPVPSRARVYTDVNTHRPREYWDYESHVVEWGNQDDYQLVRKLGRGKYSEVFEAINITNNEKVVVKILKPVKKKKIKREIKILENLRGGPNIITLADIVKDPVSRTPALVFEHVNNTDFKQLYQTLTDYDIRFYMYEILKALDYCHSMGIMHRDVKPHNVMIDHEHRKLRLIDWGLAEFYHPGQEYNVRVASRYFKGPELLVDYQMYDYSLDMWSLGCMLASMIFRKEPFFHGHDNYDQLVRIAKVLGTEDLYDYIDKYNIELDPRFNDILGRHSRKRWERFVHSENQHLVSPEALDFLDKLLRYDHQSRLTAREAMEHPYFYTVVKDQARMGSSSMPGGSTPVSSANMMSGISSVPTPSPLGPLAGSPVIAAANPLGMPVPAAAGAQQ

Row | kinase still bound, per cent of control (CSNK2A1 (human)) | kinase still bound, per cent of control (CSNK2A2 (human)) | kinase still bound, per cent of control (PRKAA2 (human)) | kinase still bound, per cent of control (FGR (human)) | kinase still bound, per cent of control (BMP2K (human)) | kinase still bound, per cent of control (STK24 (human)) | kinase still bound, per cent of control (CSNK1D (human)) | kinase still bound, per cent of control (SRPK1 (human)) | kinase still bound, per cent of control (EPHA1 (human)) | kinase still bound, per cent of control (TESK1 (human)) | kinase still bound, per cent of control (EPHA3 (human)) | kinase still bound, per cent of control (STK4 (human)) | kinase still bound, per cent of control (STK17A (human)) | kinase still bound, per cent of control (MERTK (human)) | kinase still bound, per cent of control [1] | kinase still bound, per cent of control (YES1 (human)) | kinase still bound, per cent of control (ITK (human)) | kinase still bound, per cent of control (TLK1 (human)) | kinase still bound, per cent of control (EPHB1 (human)) | kinase still bound, per cent of control (TNK2 (human)) | Structure (SMILES) | further results
1 | no effect (inactive) | no effect (inactive) | no effect (inactive) | 0% | no effect (inactive) | no effect (inactive) | 0% | no effect (inactive) | 0% | no effect (inactive) | 0% | no effect (inactive) | no effect (inactive) | no effect (inactive) | no effect (inactive) | 0% | no effect (inactive) | no effect (inactive) | 0% |  | Cc1ccc(O)cc1Nc1ccnc(Nc2cccc(C(N)=O)c2)n1 | kinase still bound, per cent of control (MST4 (human)): no effect (inactive); kinase still bound, per cent of control (KIT (human)): 0%; kinase still bound, per cent of control (PDGFRB (human)): 0%; kinase still bound, per cent of control (DAPK3 (human)): no effect (inactive); kinase still bound, per cent of control (MAPK12 (human)): no effect (inactive)
2 | no effect (inactive) | no effect (inactive) | no effect (inactive) | no effect (inactive) | no effect (inactive) | no effect (inactive) | no effect (inactive) | no effect (inactive) | no effect (inactive) |  | no effect (inactive) | no effect (inactive) | no effect (inactive) | no effect (inactive) | no effect (inactive) | no effect (inactive) | no effect (inactive) | no effect (inactive) | no effect (inactive) | no effect (inactive) | NC(=O)c1ccc(-c2cc(C(N)=O)c(N)c(-c3ccc(S(N)(=O)=O)cc3)c2)cc1 | kinase still bound, per cent of control (MAP3K11 (human)): no effect (inactive); kinase still bound, per cent of control (MAP4K3 (human)): no effect (inactive); kinase still bound, per cent of control (STK11 (human)): no effect (inactive); kinase still bound, per cent of control (NLK (human)): no effect (inactive); kinase still bound, per cent of control (LYN (human)): no effect (inactive); kinase still bound, per cent of control (BTK (human)): no effect (inactive); kinase still bound, per cent of control (MAP4K4 (human)): no effect (inactive); kinase still bound, per cent of control (MYLK2 (human)): no effect (inactive); kinase still bound, per cent of control (ACVRL1 (human)): no effect (inactive); kinase still bound, per cent of control (STK3 (human)): no effect (inactive); kinase still bound, per cent of control (KDR (human)): no effect (inactive); kinase still bound, per cent of control (MAP4K1 (human)): no effect (inactive)
3 |  |  |  | no effect (inactive) |  |  | 0% |  | no effect (inactive) | no effect (inactive) | no effect (inactive) |  |  |  |  | no effect (inactive) |  |  |  | no effect (inactive) | O=C1Nc2ccccc2/C1=C/c1ccc[nH]1 | kinase still bound, per cent of control (TNK1 (human)): no effect (inactive); kinase still bound, per cent of control (NLK (human)): no effect (inactive); kinase still bound, per cent of control (LYN (human)): no effect (inactive); kinase still bound, per cent of control (KIT (human)): 0%; kinase still bound, per cent of control (PDGFRB (human)): 0%; kinase still bound, per cent of control (ACVRL1 (human)): no effect (inactive); kinase still bound, per cent of control (STK3 (human)): 0%; kinase still bound, per cent of control (KDR (human)): 0%; kinase still bound, per cent of control (MAPK12 (human)): no effect (inactive)
4 | no effect (inactive) | no effect (inactive) | no effect (inactive) | no effect (inactive) | no effect (inactive) | no effect (inactive) | no effect (inactive) | no effect (inactive) | no effect (inactive) | no effect (inactive) | no effect (inactive) | no effect (inactive) | no effect (inactive) | no effect (inactive) | no effect (inactive) | no effect (inactive) | no effect (inactive) | no effect (inactive) | no effect (inactive) | no effect (inactive) | Cc1ccc(NC(=O)c2cccc(N3CCCCC3)c2)cc1-c1ccc(C(=O)NCC2CC2)cc1 | kinase still bound, per cent of control (TNK1 (human)): no effect (inactive); kinase still bound, per cent of control (MAP3K11 (human)): no effect (inactive); kinase still bound, per cent of control (MAP4K3 (human)): no effect (inactive); kinase still bound, per cent of control (STK11 (human)): no effect (inactive); kinase still bound, per cent of control (NLK (human)): no effect (inactive); kinase still bound, per cent of control (LYN (human)): no effect (inactive); kinase still bound, per cent of control (MST4 (human)): no effect (inactive); kinase still bound, per cent of control (BTK (human)): no effect (inactive); kinase still bound, per cent of control (ULK3 (human)): no effect (inactive); kinase still bound, per cent of control [2]: no effect (inactive); kinase still bound, per cent of control (MAP4K4 (human)): no effect (inactive); kinase still bound, per cent of control (MYLK2 (human)): no effect (inactive); kinase still bound, per cent of control (ACVRL1 (human)): no effect (inactive); kinase still bound, per cent of control (STK3 (human)): no effect (inactive); kinase still bound, per cent of control (KDR (human)): no effect (inactive); kinase still bound, per cent of control (MAP4K1 (human)): no effect (inactive); kinase still bound, per cent of control (DAPK3 (human)): no effect (inactive)
